The record followed here is ChEMBL document CHEMBL1157998, “Koninginin G, a new metabolite from trichoderma aureoviride” (1999).

For this assay, the system named is Triticum aestivum. Kind of assay: Growth inhibition of etiolated wheat coleoptiles at 1000 uM relative to control. It is filed as functional. Conditions: read-out: GI.

For `CCCCCc1cccc(=O)o1`, the inhibition of growth at 1000 µM is 100%. Regarding `CCCCCC[C@H](O)[C@@H]1CC[C@@H]2[C@H](O)CC[C@H](O)[C@@]2(O)O1` [KONINGININ G], the inhibition of growth at 1000 µM came out at 56%.
